Changes are numbered by the printed parent chain. Entries after “also recorded” stand apart in the source; their conditions may differ.
What was measured:
MEG01 cells = test: swell-activated currents in human MK cell line MEG01; assay type: cell-based; settings: WT MEG01 cells, hypotonic solution (HYPO, 210 mOsm), 10 μM
Experimental: FIG. 29A-29C depicts how the human MK cell line, MEG01, had robust, SN-4XX-inhibited, swell-activated currents. FIG. 29A depicts current density over time in response to swelling with hypotonic solution (HYPO, 210 mOsm), and inhibition by 10 μM SN401 in WT MEG01 cells. FIG. 29B depicts the current-voltage relationship in WT MEG01 cells in response to HYPO and inhibition by 10 μM SN401. FIG. 29C depicts the current-voltage relationship in WT MEG01 cells in response to HYPO and inhibition by 3 μM SN418c.

human platelets = test: platelet adhesion to collagen in microfluidic device, human whole blood; assay type: cell-based; settings: 10 μM, collagen-coated microfluidic chamber, vs vehicle (DMSO)
Experimental: Human blood from 4 donors was collected into heparin anticoagulant, pooled and incubated with the fluorescently label DiOC6 (3,39-dihexyloxacarbocyanine iodide; Invitrogen) and either 10 μM SN-401 (DCPIB) or vehicle (DMSO) for 10 minutes. The whole blood was perfused through a polydimethysiloxane (PDMS) microfluidic device plasma bonded to a glass slide patterned with bovine type 1 collagen at a constant upstream pressure for 5 minutes followed by PBS for 5 minutes. Platelet accumulation was captured using an Olympus IX83 inverted microscope and the surface area coverage of platelets quantified using ImageJ.
FIG. 23A-23B depict how SN-401 impairs human platelet adhesion under physiologic shear-flow conditions in collagen-coated microfluidic flow chambers. n=4 blood draws from 4 subjects on 2 separate days. FIG. 23A depicts the percentage of surface area covered by adherent platelets over time in human whole-blood treated with vehicle or 10 μM SN-401. p=0.1 for 2-way Anova. FIG. 23B depicts the area under the curve (AUC) calculated from FIG. 23A for vehicle and SN-401. p=0.1 for t-test.

C57BL/6 mice = test: tail wound thrombosis / tail bleeding assay; assay type: in vivo, mouse
Experimental: To determine if acute inhibition of LRRC8 channel activity affected platelet function in vivo, vehicle or the known LRRC8 channel inhibitor SN-401 (DCPIB) was administered to 25 to 30-week old C57BL/6 mice by IP injection, and in vivo thrombosis was quantified using an assay for tail wound thrombosis. Specifically, 20 minutes following IP injection with vehicle or 10 mg/kg SN-401, mouse tails were amputated 5 mm from the tail tip, placed in normal saline at 37° C. for 15 minutes, and the relative blood loss during that period was quantified by estimating the hemoglobin concentration in the normal saline by measuring light absorbance at 550 nm.
FIG. 24 depicts how SN-401 treatment increases mouse tail bleeding. Mice were pretreated with Vehicle or SN401 (10 mg/kg i.p×1) and tail bleeding quantified after 15 minutes by measuring absorbance of hemoglobin at 550 nm. * p<0.05.
To determine if acute inhibition of LRRC8 channel activity affected platelet function in vivo, vehicle or the known LRRC8 channel inhibitor SN-401 (DCPIB) was administered to 25 to 30-week old C57BL6 mice by IP injection, and in vivo thrombosis was quantified using an assay for tail wound thrombosis. […]

LRRC8 channel [1] = target: T1, LRRC8 channel (Homo sapiens, UniProt Q8IWT6); test: swell-activated currents recorded from HEK cells; assay type: cell-based
T1 construct: endogenous in cells; host or cells: HEK cells
T1 sequence (Q8IWT6 1-810): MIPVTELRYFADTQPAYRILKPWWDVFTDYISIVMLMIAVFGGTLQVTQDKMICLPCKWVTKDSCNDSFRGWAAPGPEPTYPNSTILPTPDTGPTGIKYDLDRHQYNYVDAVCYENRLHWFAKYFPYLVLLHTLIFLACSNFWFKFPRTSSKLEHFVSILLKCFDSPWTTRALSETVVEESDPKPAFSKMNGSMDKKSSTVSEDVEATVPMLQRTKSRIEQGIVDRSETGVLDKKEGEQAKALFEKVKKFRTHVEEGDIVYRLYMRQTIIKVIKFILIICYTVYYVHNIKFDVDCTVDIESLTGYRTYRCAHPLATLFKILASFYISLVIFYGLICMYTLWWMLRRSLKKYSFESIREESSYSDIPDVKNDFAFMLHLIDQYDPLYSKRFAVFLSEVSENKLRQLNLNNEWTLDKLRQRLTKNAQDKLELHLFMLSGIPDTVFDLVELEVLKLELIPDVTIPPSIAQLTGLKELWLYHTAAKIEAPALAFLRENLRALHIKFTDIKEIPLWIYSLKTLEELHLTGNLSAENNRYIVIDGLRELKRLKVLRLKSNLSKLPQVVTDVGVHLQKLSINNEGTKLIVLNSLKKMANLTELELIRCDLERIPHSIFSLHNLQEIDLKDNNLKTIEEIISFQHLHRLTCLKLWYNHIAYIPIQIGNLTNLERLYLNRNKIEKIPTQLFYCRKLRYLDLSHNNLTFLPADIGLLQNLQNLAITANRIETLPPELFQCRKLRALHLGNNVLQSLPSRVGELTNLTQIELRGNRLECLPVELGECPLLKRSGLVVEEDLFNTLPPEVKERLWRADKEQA
Text: FIG. 25A-25D depict how congeners SN-418 and SN-418C are potent inhibitors of swell-activated currents recorded from HEK cells. FIG. 25A depicts the chemical structure of SN-418. FIG. 25B depicts the chemical structure of SN-418C. FIG. 25C depicts currents in the presence of varying concentrations of SN-418 and SN-401 normalized to the currents activated in hypotonic solution alone. […] FIG. 25D depicts currents in the presence of varying concentrations of SN-418C and SN-401 normalized to the currents activated in hypotonic solution alone.
Examples of these are SN-418 and SN-418C (FIG. 25A&25B), which include modification in the alkyl chain+/−cyclopropyl group to increase LRRC8 channel inhibition ˜10-fold over SN-401 (FIG. 25C&25D). SN-418C was then tested for antiplatelet activity in vitro.

LRRC8 channel [2] = target: T2, LRRC8 channel (Mus musculus, UniProt Q80WG5); test: perforated patch-clamp of ICl,SWELL in freshly isolated murine megakaryocytes; assay type: cell-based; set-up: inhibition of ICI,SWELL currents: dose or concentration left out as unconfirmed; settings: for inhibition of swell-activated current: murine MK, hypotonic solution (HYPO, 205 mOsm), 10 μM
T2 construct: endogenous in cells; host or cells: freshly isolated murine megakaryocytes (WT = LRRC8A fl/fl littermate controls)
T2 sequence (Q80WG5 1-810): T1 sequence (Q8IWT6 1-810) with P75S, G76S, I86V, I276A, A591V, I715V, T722A, N792S
Text: FIG. 17A depicts a murine MK perforated patch-clamp. FIG. […] FIG. 17C depicts the current-voltage relationship in WT MK. FIG. 17D depicts the current-voltage relationship in cKO MK. FIG. 17E depicts mean outward and inward currents at +100 mV and −100 mV respectively, in WT, WT+SN401, and cKO MK. * p<0.05;** p<0.01.
To validate the biology implied by the human genetic studies, megakaryocyte (MK)-specific LRRC8A conditional knockout (cKO) mice were generated by crossing our LRRC8A^fl/fl mouse (SWELL1^fl/fl)^35-31 with the platelet factor4-driven Cre recombinase mouse (Pf4-Cre) to generate LRRC8A^fl/fl;Pf4-cre+/− (cKO) and littermate control LRRC8A^fl/fl mice (WT). Complete deletion of LRRC8A protein from cKO mouse platelets was confirmed while maintaining expression of the platelet marker b3 integrin (FIG. 16). To confirm that LRRC8 proteins form functional VRAC/ICI,SWELL channels in platelets, ICI,SWELL was measured in freshly isolated murine MK using the perforated patch configuration of the patch-clamp technique (FIG. 17A). […] This hypotonically-activated, swell-activated current is entirely abolished in cKO MKs (FIG. 17C-17D), confirming the SN-401-inhibited current in murine MKs to be entirely LRRC8A mediated.

CCCCC1(C2CCCC2)Cc2cc(OCCCC(=O)O)c(Cl)c(Cl)c2C1=O (stereo not drawn) [SN-401, 4-((2-Butyl-6,7-dichloro-2-cyclopentyl-1-oxo-2,3-dihydro-1H-inden-5-yl)oxy)butanoic acid]
inhibition of swell-activated (ICI,SWELL) current (MEG01 cells): completely inhibited | inhibition of swell-activated (ICI,SWELL) current (MEG01 cells; listed as SN401): inhibition | adhesion of human platelets to collagen (surface area coverage) (human platelets): significantly reduced; also recorded: significantly inhibited; also recorded: impairs | mean amount of tail blood loss relative to vehicle (C57BL/6 mice; 10 mg/kg IP, 20 minutes before tail amputation, 15 minutes, absorbance at 550 nm): 4 fold | tail bleeding (C57BL/6 mice; 10 mg/kg i.p. x1, hemoglobin absorbance at 550 nm after 15 minutes): increases | IC50 (LRRC8 channel [1]): 4 µM | inhibition of ICI,SWELL currents (LRRC8 channel [2]; WT MK, hypotonic swelling): fully inhibited | inhibition of swell-activated current (LRRC8 channel [2]): robust inhibition | inhibition of swell-activated current (LRRC8 channel [2]; listed as SN401): inhibition

— patent US20250339392A1, “THE USE OF LRRC8 PROTEIN […] PREVENT AND TREAT CARDIOVASCULAR DISEASE” (Washington University, priority 2022, published 2025)
